# Experimental data as given in patent US5756538A, “Flavonoid and biflavonoid derivatives, their pharmaceutical compositions, their anxiolytic activity” (University of Strathclyde, priority 1993, dated 1998).
# Read-outs that look alike come from different tables or passages of the source.
# Columns and labels:
# benzodiazepine receptor = test: Competitive inhibition of 3H-flunitrazepam binding to benzodiazepine receptor (cerebral cortical membranes); design: species or system bovine
# Protocol: (Competitive inhibition of H^3 -flunitrazepam to benzodiazepine receptor)
# Binding of 3H-flunitrazepam (0.7 nM) to the benzodiazepine receptor was carried out in extensively washed cerebral cortical membranes.
# H^3 -flunitrazepam has a Ki of […] to the benzodiazepine receptor.
# IC50 values were obtained using flavonoids at different concentrations (10^-10 to 10^-3 M).
# Structure - activity relationships of several flavonoids on
# the ^3 H Flunitrazepam binding to bovine brain membranes.
# mice [1] = test: Elevated plus maze (anxiety); type: in vivo, mice (male CF1); details: for Percentage of entries in the open arms / Percentage of the time spent on the open arms / Total arm entries: 20 min after injection; for Total arm entries: 5 min test, mean ± S.E.M.
# Protocol: (a) Elevated Plus Maze: consisted of 4 perpendicularly disposed wood arms (20×5 cm; two had 35 cm high wood walls, and two were open) linked by a central 10×10 cm square. The maze was suspended 50 cm from the room floor. Animals were placed on the central part of the maze facing a closed arm. This test has been widely validated to measure anxiety in rodents. The number of entries into and the time spent in the open and closed arms were counted during 5 min. […] Total exploratory activity (number of entries in both arms) was also determined.
# (§1) All the injections were given intraperitoneally (i.p.). […] Testing was carried out `blind`. All data were submitted to analysis of variance (ANOVA).
# mice [2] = test: Holeboard test (exploratory activity, sedation); type: in vivo, mice (male CF1)
# Protocol: (b) Holeboard Test: consisted of a wood box (60×60×30 cm) with four 2 cm diameter holes equidistant in the floor. The number of head-dips and the time spent head-dipping were counted during 5 min. An increase in the number and the time spent head-dipping implies a greater exploratory activity.
# as §1
# mice [3] = test: Horizontal wire test (muscle relaxation); type: in vivo, mice (male CF1)
# Protocol: (d) Horizontal Wire Test: It consisted of an horizontally strung wire (1 mm diameter, 15 cm long), placed at 20 cm from the table. Mice were lifted by the tail, allowed to grasp the wire with their forepaws and released. […] After two trials, performed at 5 min. intervals, the test took place. A myorelaxant drug, like diazepam at high doses, will impair the ability of mice to grasp the wire. Generally, this state of muscle relaxation is commonly associated with sedation.
# as §1
# The test took place after two trials, executed after a 5 min interval.
# mice [4] = test: PTZ induced seizures in mice (anticonvulsant activity); type: in vivo
# Protocol: (Induced seizures in mice)
# Benzodiazepines in general show an anxiolytic effect, a sedative effect and an anticonvulsant effect. In order to assess the present compounds for anticonvulsant activity the following experiment was carried out.
# The method of Medina et al Biochem.Pharm. 40 p2227-2231, (1990) was followed (with the exception that injections were carried out intraperitoneally) and the mice observed for seizures.
# EFFECTS OF IP ADMINISTRATION OF APIGENIN ON PTZ
# INDUCED SEIZURES IN MICE.
# The convulsant doses of pentylenetetrazole are between 50-80 mg/kg in different experiments carried out in 6 independent days.
# [5] = system: locus coeruleus noradrenaline; test: Noradrenaline levels in locus coeruleus after immobilization stress; type: in vivo, rats; details: 1 mg/kg i.p., 30 min before 90-min stress session
# Protocol: Rats were submitted to a 90-minute immobilization stress session in a plastic cylinder. The locus coeruleus was dissected out after killing by decapitation and noradrenaline assessed by HPLC with electrochemical detection. Doses were 1 mg/kg for each substance, injected i.p., 30 minutes before the stress session.
# mice [6] = test: Locomotor activity test (OPTO-VARIMEX)
# Protocol: Male CF1 mice from our breeding stock weighing 28-35 g were used. The animals were placed in groups of 10-12 with free access to water and food, and maintained on a 12 h/12 h day-night cycle.
# Diazepam (DZ; Hoffman-La Roche) and the flavonoids were dissolved in DMSO 40%, NaOH 0.1N (7:3: v/v) at pH 8.2 Control animals were injected with the same vehicle (VEH). RO 15-1788 (Hoffmann-La Roche) was suspended in DMSO 10%, propyleneglycol 10% in distilled water.
# (c) Locomotor Activity Test: we used an OPTO-VARIMEX apparatus consisting of a glass box (36×15×20 cm) and two lateral bars with 15 light beams (0.32 cm diameter, beam spacing 2.65 cm). The apparatus detects automatically all the mouse movements, and discriminates between total and ambulatory activity. The locomotor activity (number of movements across the beams) was counted during 5 min. An increase in the number of transitions through the beams reflects an augmented locomotor activity.
# The general procedure for all the tests is as follows: mice were injected with vehicle or the drug solution 20 min before the beginning of the test and put into another home cage. Ro 15-1788, a specific BZD receptor antagonist was injected 10 min before the tested drug. All the injections were given intraperitoneally (i.p.). Control mice were tested in each session, in parallel with those animals receiving the test drug or diazepam. Testing was carried out `blind`. All data were submitted to analysis of variance (ANOVA). Post-hoc comparisons between individual treatments and controls were made using Dunnett's t-test.
# FIGS. 15, 16, 17 and 18 show ambulatory locomoter activity counts during a 5 min. test session in an OPTO-Varimex apparatus, 20 min. after i.p. injection with a mixture of brominated flavones (0.6,1,3 mg/kg), FIG. 15; 2' chlorinated chrysin (1,3 mg/kg); FIG. 16; 2' fluorinated chrysin (3 mg/kg), FIG. 17; 6,8 dibromoflavone, FIG. 18. Data are expressed as medians (interquartile range) of (n) number of animals.
# [7] = 3H-flunitrazepam 0.7 nM, read-out: IC50 at the benzodiazepine receptor
# [8] = bovine brain membranes, 0.7 nM 3H-flunitrazepam, read-out: 3H Flunitrazepam binding IC50
compound,measurement,setting,value
"O=c1cc(-c2ccccc2)oc2c(Br)c(O)c(Br)c(O)c12 [6,8 dibromochrysin, 6,8-Dibromo-5,7-dihydroxyflavone]",Benzodiazepine ligand behaviour / affinity relative to 3H-flunitrazepam,benzodiazepine receptor,benzodiazepine ligand behaviour similar to that of ^3 H-flunitrazepam
same,IC50,benzodiazepine receptor; [7],700 to 3000 nM
same,IC50,benzodiazepine receptor; [8],700 nM
"O=c1c(O[C@@H]2O[C@H](CO)[C@@H](O)[C@H](O)[C@H]2O)c(-c2ccc(O)c(O)c2)oc2cc(O)cc(O)c12 [Isoquercetin, reference compound]",IC50,benzodiazepine receptor; [8],10000 nM
"O=c1cc(-c2ccc(O)cc2)oc2cc(O)cc(O)c12 [Apigenin, 4', 5,7-trihydroxyflavone]",Anxiolytic effect in the elevated plus maze,mice [1]; i.p.,shows anxiolytic effects
same,Effect in the holeboard test,mice [2]; 3 and 10 mg/kg i.p.,did not induce any effect
same,Effect in the horizontal wire test,mice [3]; 3 and 10 mg/kg i.p.,did not induce any effect
same,Benzodiazepine ligand behaviour / affinity relative to 3H-flunitrazepam,benzodiazepine receptor,benzodiazepine ligand behaviour similar to that of ^3 H-flunitrazepam
same,IC50,benzodiazepine receptor; [7],700 to 3000 nM
same,IC50,benzodiazepine receptor; [8],3000 nM
same,Number of animals with clonic convulsions,mice [4]; 3 mg/kg i.p. + PTZ,8/8
same,Number of animals with clonic convulsions,mice [4]; 20 mg/kg i.p. + PTZ,3/3
same,Number of animals with clonic convulsions,mice [4]; 40 mg/kg i.p. + PTZ,12/14
same,Number of animals with clonic convulsions,mice [4]; 80 mg/kg i.p. + PTZ,11/11
same,Anticonvulsant activity,"mice [4]; i.p., PTZ induced seizures",no anticonvulsant activity
same,Noradrenaline decrease in locus coeruleus provoked by immobilization stress,[5],blocked almost completely the noradrenaline decrease
same,Potency vs diazepam on stress-provoked noradrenaline decrease,[5],most potent effect
same,Noradrenaline decrease in locus coeruleus provoked by immobilization stress,[5]; listed as apigenin,dampened the noradrenaline decrease
"O=c1cc(-c2ccccc2Cl)oc2cc(O)cc(O)c12 [2' chlorochrysin, 5,7-Dihydroxy-2'-chloroflavone]",Ambulatory locomotor activity counts vs controls,"mice [6]; 1, 3 mg/kg i.p., 20 min after injection, 5 min session",No significant difference
same,IC50,benzodiazepine receptor; [8],9000 nM
"O=c1c(O[C@@H]2O[C@H](CO)[C@@H](O)[C@H](O)[C@H]2O)c(-c2ccc(O)c(O)c2)oc2cc(O)cc(O)c12 [Isoquercitrin, reference compound]",IC50,benzodiazepine receptor; [8],80000 nM
O=c1cc(-c2ccc(O)c(-c3c(O)cc(O)c4c(=O)cc(-c5ccc(O)cc5)oc34)c2)oc2cc(O)cc(O)c12 [Amentoflavone],Benzodiazepine ligand behaviour / affinity relative to 3H-flunitrazepam,benzodiazepine receptor,far higher affinity for the benzodiazepine receptor
same,IC50,benzodiazepine receptor; [7],10 nM
same,IC50,benzodiazepine receptor; [8],10 nM
"6,8 dibromoflavone",Ambulatory locomotor activity counts vs controls,"mice [6]; i.p., dose not stated",No significant difference
"CN1C(=O)CN=C(c2ccccc2F)c2cc([N+](=O)[O-])ccc21 [H^3 -flunitrazepam, reference compound]",Ki,benzodiazepine receptor,3 nM
"O=c1cc(-c2ccccc2F)oc2cc(O)cc(O)c12 [2' fluorochrysin, 5,7-Dihydroxy-2'-fluoroflavone]",Ambulatory locomotor activity counts vs controls,"mice [6]; 3 mg/kg i.p., 20 min after injection, 5 min session",No significant difference
same,IC50,benzodiazepine receptor; [8],8000 nM
"COc1cc(O)c2c(=O)cc(-c3ccccc3)oc2c1 [5 hydroxy 7 methoxyflavone, 5-hydroxy-7-methoxyflavone]",IC50,benzodiazepine receptor; [8],46000 nM
"C[C@@H]1O[C@@H](OC[C@H]2O[C@@H](Oc3c(-c4ccc(O)c(O)c4)oc4cc(O)cc(O)c4c3=O)[C@H](O)[C@@H](O)[C@@H]2O)[C@H](O)[C@H](O)[C@H]1O [Rutin, reference compound]",IC50,benzodiazepine receptor; [8],60000 nM
COc1cc(O)c2c(=O)cc(-c3ccc(OC)c(-c4c(O)cc(O)c5c(=O)cc(-c6ccc(O)cc6)oc45)c3)oc2c1 [Ginkgetin],IC50,benzodiazepine receptor; [8],5000 nM
O=c1cc(-c2ccccc2)oc2cc(Br)ccc12 [7-bromoflavone],Ambulatory locomotor activity counts vs controls,"mice [6]; i.p., dose not stated",No significant change
same,Benzodiazepine ligand behaviour / affinity relative to 3H-flunitrazepam,benzodiazepine receptor,far higher affinity for the benzodiazepine receptor
same,IC50,benzodiazepine receptor; [7],50 nM
same,IC50,benzodiazepine receptor; [8],50 nM
"O=C1CC(c2ccccc2)Oc2ccccc21 (centres unmarked) [flavanone, reference compound]",IC50,benzodiazepine receptor; [8],40000 nM
COc1ccc(-c2cc(=O)c3c(O)cc(O)c(-c4cc(-c5cc(=O)c6c(O)cc(O)cc6o5)ccc4OC)c3o2)cc1 [Isoginkgetin],IC50,benzodiazepine receptor; [8],4000 to 5000 nM
"O=c1cc(-c2ccccc2)oc2ccccc12 [Flavone, 2-phenyl-4H-1-benzopyran-4-one]",Percentage of entries in the open arms,mice [1]; 1 mg/kg i.p.,increased the percentage of entries and time spent in the open arms (p<0.002)
same,Percentage of the time spent on the open arms,mice [1]; 1 mg/kg i.p.,increased the percentage of entries and time spent in the open arms (p<0.002)
same,Benzodiazepine ligand behaviour / affinity relative to 3H-flunitrazepam,benzodiazepine receptor,benzodiazepine ligand behaviour similar to that of ^3 H-flunitrazepam
same,IC50,benzodiazepine receptor; [7],700 to 3000 nM
same,IC50,benzodiazepine receptor; [8],1000 nM
"CN1C(=O)CN=C(c2ccccc2)c2cc(Cl)ccc21 [Diazepam, reference compound]",Total arm entries,mice [1]; 0.3 mg/kg i.p.,10.5 ± 0.8
same,Total arm entries,mice [1]; 0.6 mg/kg i.p.,12.4 ± 1.9
same,Percentage of entries in the open arms,mice [1]; 0.3 and 0.6 mg/kg i.p.,increased the percentage of entries in the open arms (p<0.01)
same,Percentage of the time spent on the open arms,mice [1]; 0.3 and 0.6 mg/kg i.p.,the percentage of the time spent on the open arms (p<0.01)
same,Anxiolytic effect in the elevated plus maze,mice [1]; i.p.,displayed an anxiolytic effect
same,"Total arm entries, difference from controls","mice [1]; i.p., doses of Table I",No differences were observed
same,Number of head-dips,mice [2]; 0.3 mg/kg i.p.,increased the number of head-dips (p<0.05)
same,Time spent head-dipping,mice [2]; 1 mg/kg i.p.,increased the time spent head-dipping(p<0.01)
same,Number of head-dips,mice [2]; 6 mg/kg i.p.,decrease in both the number of head-dips and in the time spent head-dipping (p<0.01)
same,Sedation,mice [2]; 6 mg/kg i.p.,indicates sedation
same,Time spent head-dipping,mice [2]; 6 mg/kg i.p.,decrease in both the number of head-dips and in the time spent head-dipping (p<0.01)
same,Locomotor activity,"mice [6]; 0.3-3 mg/kg i.p., 20 min after injection",increasing locomotor activity
same,Percentage of animals grasping the horizontal wire,mice [3]; 6 mg/kg i.p.,significantly decreased
same,Number of animals with clonic convulsions,mice [4]; 3 mg/kg i.p. + PTZ,0/6
